Experimental data taken from the NIST ThermoML archive (doi:10.1021/je400373d).
Numbers after ± are expanded uncertainties.

Key:
[1] = Boiling temperature at pressure P; conditions: 101.33 kPa; Liquid; Ebulliometric method (Recirculating still)
[2] = Liquid, Ebulliometric method (Recirculating still)

Structure (SMILES): CNCCO [2-(methylamino)ethanol]
- Boiling temperature at pressure P [1]: 158.1 ± 0.2 °C
- vapor or sublimation pressure ([2]; 388 K): 20 ± 0.43 kPa
- vapor or sublimation pressure ([2]; 388.04 K): 20 ± 0.43 kPa
- vapor or sublimation pressure ([2]; 397.89 K): 30 ± 0.6 kPa
- vapor or sublimation pressure ([2]; 397.95 K): 30 ± 0.6 kPa
- vapor or sublimation pressure ([2]; 405.45 K): 40 ± 0.74 kPa
- vapor or sublimation pressure ([2]; 405.48 K): 40 ± 0.74 kPa
- vapor or sublimation pressure ([2]; 431.2 K): 101.3 ± 2 kPa

Structure (SMILES): CN(CCO)CCO [N-methyldiethanolamine]
- vapor or sublimation pressure ([2]; 467.34 K): 20 ± 0.5 kPa
- vapor or sublimation pressure ([2]; 467.4 K): 20 ± 0.5 kPa
- vapor or sublimation pressure ([2]; 479.37 K): 30 ± 0.69 kPa
- vapor or sublimation pressure ([2]; 479.4 K): 30 ± 0.69 kPa
- vapor or sublimation pressure ([2]; 488.14 K): 40 ± 0.82 kPa
- vapor or sublimation pressure ([2]; 488.17 K): 40 ± 0.82 kPa
- vapor or sublimation pressure ([2]; 520.28 K): 101.3 ± 2 kPa

Structure (SMILES): OCCO [1,2-ethanediol]
- vapor or sublimation pressure ([2]; 422.75 K): 20 ± 0.46 kPa
- vapor or sublimation pressure ([2]; 422.8 K): 20 ± 0.46 kPa
- vapor or sublimation pressure ([2]; 433.66 K): 30 ± 0.63 kPa
- vapor or sublimation pressure ([2]; 433.71 K): 30 ± 0.63 kPa
- vapor or sublimation pressure ([2]; 441.66 K): 40 ± 0.76 kPa
- vapor or sublimation pressure ([2]; 441.7 K): 40 ± 0.76 kPa
- vapor or sublimation pressure ([2]; 470.47 K): 101.3 ± 2 kPa
